# Reference: patent US10351519B2, “Sulfamate derivative compounds, processes for preparing them and their uses” (BIO-PHARM SOLUTIONS CO., LTD., priority 2016, dated 2019)
# Key:
# Type in all cases: in vivo
# [1] = test system: SD rats; assay: Anti-epilepsy activity, MES test, rat
# Method: (§1) In the MES test (Ref., G. Villetti et al. Neuropharmacology 40 (2001) 866-878), an electrical stimulus (mice: 50 mA, 60 Hz, 0.2 sec, and rats: 150 mA, 60 Hz, 0.2 sec in the test animal) supplied by an 11A Shocker (IITC Life Science Company) was delivered through corneal electrodes. All mice or rats assigned to any electroshock at peak time were treated with each test compound sample which was dissolved in 30% PEG 400 or 20% tween 80 prepared by saline solvent applied orally before the test. […] Three doses of the test sample were administered orally to 9-18 animals (3-6 mice per dose) for evaluating the respective doses at which 50% of the animals were protected from seizure (ED50). The ED50 value (median effective dose) was calculated by Litchfield and Wicoxon log-probit method which is a dose-response relationship. Experimental animals, male ICR mice and male SD rats, were purchased from OrientBio, Samtako, or Nara Biotech, Korea, and housed in cages (4-5 mice or 3 rats per cage) for 4-5 days. The range of mice body weight was between 19 and 25 grams and range of rats body weight was between 100 and 130 grams.
# [2] = test system: ICR mice; assay: Anti-epilepsy activity, MES test, mouse; settings: for responders at 50 mg/kg / ED50 / responders at 30 mg/kg: po; for responders at 50 mg/kg / responders at 30 mg/kg: read-out: MES test (po) efficacy %
# Method: as §1
# [3] = test system: Sprague-Dawley rats; assay: Antiallodynic activity on Complete Freund's Adjuvant (CFA)-induced inflammatory pain model; settings: intraperitoneally; for response vs control in vivo at 50 mg/kg: read-out: CFA-induced pain model efficacy %
# Method: Male, Sprague-Dawley rats (210-250 g, Nara Bio, Korea) were habituated for 1 week before CFA injection and allowed free access to food and water throughout the experimentation. Room temperature and humidity were maintained at 24±2 and 50±10%, respectively.
# CFA-induced inflammatory pain was induced by the procedure of Nagakura et al. (2003) and Gregory P. et al. (2010) with minor modifications. CFA (sigma, USA) was injected in the right plantar with a 100 ul volume under gaseous anesthesia with isoflurane. Sham controls were injected with 100 ul of saline and preparation of the vehicles without compound in the vehicle control group. Tactile sensitivity (Mechanical allodynia) was evaluated using von Frey monofilaments before and after treatment, and the animals were included in the study only if the withdrawal threshold value was less than 4 g. One week after surgery, CFA-infused treatment animals (n=4-6), sham-operated animals (n=12), and vehicle control animals (n=17) were tested for tactile sensitivity with von Frey monofilaments 3 trials for each animal. All Animals were placed in a stainless steel mesh chamber and habituated for 30 min in the test box. The tactile sensitivity for ipsilateral hind paw was measured using the up-and-down method (Dixon, 1980) with seven von Frey monofilaments (0.4, 1, 2, 4, 6, 8, and 15 g) to 3 trials. Tactile sensitivity test was followed by Dixon's method (Dixon, 1980). The 50% paw withdrawal threshold for each paw was calculated using the following formula: [Xth] log=[vFr] log+ky where [vFr] is the force of the last von Frey used, k=0.2249 which is the average interval (in log units) between the von Frey monofilaments, and y is a value that depends upon the pattern of withdrawal responses (Dixon, 1980).
# Antiallodynic effect of compound was evaluated at the dose of 10-60 mg/kg (n=4-6), intraperitoneally administrated in a volume of 5 ul/g bw in a vehicle of 30% (v/v) PEG or 20% (v/v) Tween 80. The test was performed peak time of efficacy (0.5 or 1 hr) after compound administration.
# The relative values compared to the sham (% control) were calculated and shown in Table 4, which show an antiallodynic effect of Compound 1 on CFA-induced pain model in rats.
# [4] = test system: Sprague-Dawley rats; assay: Antiallodynic activity on Chung model (SNL, spinal nerve ligation); settings: orally; for SNL efficacy %: 30 mg/kg
# From the text: Male Sprague-Dawley rats (100-130 g, Orient Bio, Korea) were habituated for 1 week before the experiment and allowed free access to food and water throughout the experimentation. Room temperature and humidity were maintained at 24±2 and 50±10%, respectively. The neuropathic surgery (SNL, Spinal nerve ligation) model was done as described in Kim and Chung (1992). Briefly, an animal was put under gaseous anesthesia with isoflurane. The left lumber spinal nerve L5 and L6 were isolated and tightly ligated with 6-0 silk thread. The wound muscle was closed with Catgut® chrom 3/0 thread and skin was closed with Dafilon 3/0 tread. Sham controls were prepared in the same manner with the spinal nerves exposed, but with no ligated L5 and L6 nerves. Preparation of the vehicle controls were identical to the group treated with compound, except for administration of vehicles without compound in the vehicle control group.
# Tactile sensitivity (Mechanical allodynia) was evaluated using von Frey monofilaments before and after treatment, and animals were included in the study only if the withdrawal threshold value was less than 4 g. One week after surgery, SNL-operated animals, sham-operated animals and vehicle control animals were tested for tactile sensitivity with von Frey monofilaments 3 trials in each animal. All Animals were placed in a stainless steel mash chamber and habituated for 30 min in the test cage. The tactile sensitivity for the ipsilateral hind paw was measured using the up-and-down method (Dixon, 1980) with seven von Frey monofilaments (0.4, 1, 2, 4, 6, 8, and 15 g) in 3 trials. The tactile sensitivity test was followed by Dixon's method (Dixon, 1980). The 50% paw withdrawal threshold for each paw was calculated using the following formula: [Xth] log=[vFr] log+ky where [vFr] is the force of the last von Frey used, k=0.2249 which is the average interval (in log units) between the von Frey monofilaments, and y is a value that depends upon the pattern of withdrawal responses (Dixon, 1980).
# All animals were fasted 18 h before the administration of the compounds. Antiallodynic effect of compounds were evaluated at the three dose, orally administrated in a volume of 5 ul/g, bw in a vehicle of 30% (v/v) PEG 400 or 20% (v/v) Tween 80. The test was performed at the peak time of efficacy after compound administration.
# The relative values compared to the sham group (% control) were calculated and shown in Table 3, which show an antiallodynic effect of the test compounds on SNL model in rats.
SMILES,MES test (po) Peak time [2],"response vs control in vivo at 50 mg/kg ([3]; Rattus norvegicus, ip)",CFA-induced pain model Peak Time [3],further results
"CC(C)NS(=O)(=O)O[C@@H](C)[C@@H](O)c1ccccc1Cl [Example 37, (1S, 2S)-1-(2-chlorophenyl)-1-hydroxypropan-2-yl isopropylsulfamate]",–,–,–,MES test (po) Peak time [1]: 2 h; MES test (po) efficacy % ([1]; 10 mg/kg): 16.6%
"CC[C@H](OS(N)(=O)=O)[C@@H](O)c1ccccc1Cl [Example 11, (1S, 2S)-1-(2-chlorophenyl)-1-hydroxybutan-2-yl sulfamate]",2 h,–,–,responders at 50 mg/kg [2]: 25%; MES test (po) Peak time [1]: 2 h; MES test (po) efficacy % ([1]; 24 mg/kg): 33.3%
"CC(C)[C@@H](OS(N)(=O)=O)[C@H](O)c1ccccc1Cl [Example 14, (1R, 2R)-1-(2-chlorophenyl)-1-hydroxy-3-methylbutan-2-yl sulfamate]",1 h,18.4%,1 h,responders at 50 mg/kg [2]: 25%
"C[C@H](OS(N)(=O)=O)[C@@H](O)c1cccc(Cl)c1Cl [Example 9, (1S, 2S)-1-(2,3-dichlorophenyl)-1-hydroxypropan-2-yl sulfamate]",4 h,–,–,ED50 [2]: 61.8 mg/kg
"C[C@H](OS(N)(=O)=O)[C@@H](O)c1ccc(Cl)cc1Cl [Example 3, (1S, 2S)-1-(2,4-dichlorophenyl)-1-hydroxypropan-2-yl sulfamate]",–,–,–,MES test (po) Peak time [1]: 4 h; MES test (po) efficacy % ([1]; 20 mg/kg): 16.6%
"COCO[C@@H](c1ccccc1I)[C@H](C)OS(N)(=O)=O [Example 74, (1S, 2S)-1-(2-iodophenyl)-1-(methoxymethoxy)propan-2-yl sulfamate]",0.5 h,19.9%,0.5 h,responders at 30 mg/kg [2]: 33.3%
"CC[C@@H](OS(N)(=O)=O)[C@H](O)c1ccccc1Cl [Example 12, (1R, 2R)-1-(2-chlorophenyl)-1-hydroxybutan-2-yl sulfamate]",–,21.9%,0.5 h,MES test (po) Peak time [1]: 1 h; MES test (po) efficacy % ([1]; 100 mg/kg): 100%
"COCO[C@@H](c1sc(Cl)nc1Cl)[C@H](C)OS(N)(=O)=O [Example 103, (1R,2S)-1-(2,4-dichlorothiazol-5-yl)-1-(methoxymethoxy)propan-2-yl sulfamate]",2 h,–,–,ED50 [2]: 52.7 mg/kg
"COCO[C@@H](c1cccc(Cl)c1Cl)[C@H](C)OS(N)(=O)=O [Example 53, (1S, 2S)-1-(2,3-dichlorophenyl)-1-(methoxymethoxy)propan-2-yl sulfamate]",2 h,–,–,ED50 [2]: 67.8 mg/kg
"COCO[C@@H](c1c(Cl)cccc1Cl)[C@H](C)OS(N)(=O)=O [Example 57, (1S, 2S)-1-(2,6-dichlorophenyl)-1-(methoxymethoxy)propan-2-yl sulfamate]",–,–,–,SNL Peak Time [4]: 1 h; SNL efficacy % [4]: 30(26.3%)
"C[C@H](OS(N)(=O)=O)[C@@H](O)c1ccccc1F [Example 17, (1S, 2S)-1-(2-fluorophenyl)-1-hydroxypropan-2-yl sulfamate]",–,–,0.5 h,"ED50 ([4]; Rattus norvegicus, po, at peak time): 46.9 mg/kg; SNL Peak Time [4]: 1 h; ED50 ([3]; Rattus norvegicus, ip, at peak time): 48.7 mg/kg"
"COCO[C@H](c1ccccc1Cl)[C@@H](C)OS(=O)(=O)NC1CC1 [Example 79, (1R, 2R)-1-(2-chlorophenyl)-1-(methoxymethoxy)propan-2-yl cyclopropylsulfamate]",1 h,–,–,responders at 50 mg/kg [2]: 25%
"CC[C@@H](OS(N)(=O)=O)[C@H](OCOC)c1ccccc1Cl [Example 71, (1R, 2R)-1-(2-chlorophenyl)-1-(methoxymethoxy)butan-2-yl sulfamate]",–,41.9%,0.5 h,SNL Peak Time [4]: 0.5 h; SNL efficacy % [4]: 30(31.9%)
"CO[C@@H](c1ccccc1I)[C@H](C)OS(N)(=O)=O [Example 92, (1S,2S)-1-(2-iodophenyl)-1-methoxypropan-2-yl sulfamate]",–,31.8%,0.5 h,–
"CC(C)[C@H](OS(N)(=O)=O)[C@@H](O)c1ccccc1Cl [Example 13, (1S, 2S)-1-(2-chlorophenyl)-1-hydroxy-3-methylbutan-2-yl sulfamate]",1 h,–,–,responders at 50 mg/kg [2]: 25%
"COCO[C@@H](c1ccccc1Cl)[C@H](C)OS(=O)(=O)NC1CC1 [Example 78, (1S, 2S)-1-(2-chlorophenyl)-1-(methoxymethoxy)propan-2-yl cyclopropylsulfamate]",4 h,–,–,responders at 50 mg/kg [2]: 25%
"COCO[C@@H](c1ccccc1F)[C@H](C)OS(N)(=O)=O [Example 72, (1S, 2S)-1-(2-fluorophenyl)-1-(methoxymethoxy)propan-2-yl sulfamate]",–,25.9%,0.5 h,–
"C[C@H](OS(N)(=O)=O)[C@@H](O)c1sc(Cl)nc1Cl [Example 102, (1R,2S)-1-(2,4-dichlorothiazol-5-yl)-1-hydroxypropan-2-yl sulfamate]",2 h,–,–,ED50 [2]: 42.7 mg/kg
"COCO[C@@H](c1c(F)cccc1Cl)[C@H](C)OS(N)(=O)=O [Example 61, (1S, 2S)-1-(2-chloro-6-fluorophenyl)-1-(methoxymethoxy)propan-2-yl sulfamate]",2 h,–,–,responders at 30 mg/kg [2]: 33.3%
"COCO[C@H](c1c(Cl)cccc1Cl)[C@@H](C)OS(N)(=O)=O [Example 58, (1R, 2R)-1-(2,6-dichlorophenyl)-1-(methoxymethoxy)propan-2-yl sulfamate]",1 h,17.7%,0.5 h,ED50 [2]: 54.4 mg/kg
"CC(C)NS(=O)(=O)O[C@H](C)[C@H](O)c1ccccc1Cl [Example 38, (1R, 2R)-1-(2-chlorophenyl)-1-hydroxypropan-2-yl isopropylsulfamate]",2 h,–,–,responders at 50 mg/kg [2]: 50%
